The target of the first test is T1, GPBP (Homo sapiens, UniProt Q9Y5P4).
T1 sequence (Q9Y5P4 1-624): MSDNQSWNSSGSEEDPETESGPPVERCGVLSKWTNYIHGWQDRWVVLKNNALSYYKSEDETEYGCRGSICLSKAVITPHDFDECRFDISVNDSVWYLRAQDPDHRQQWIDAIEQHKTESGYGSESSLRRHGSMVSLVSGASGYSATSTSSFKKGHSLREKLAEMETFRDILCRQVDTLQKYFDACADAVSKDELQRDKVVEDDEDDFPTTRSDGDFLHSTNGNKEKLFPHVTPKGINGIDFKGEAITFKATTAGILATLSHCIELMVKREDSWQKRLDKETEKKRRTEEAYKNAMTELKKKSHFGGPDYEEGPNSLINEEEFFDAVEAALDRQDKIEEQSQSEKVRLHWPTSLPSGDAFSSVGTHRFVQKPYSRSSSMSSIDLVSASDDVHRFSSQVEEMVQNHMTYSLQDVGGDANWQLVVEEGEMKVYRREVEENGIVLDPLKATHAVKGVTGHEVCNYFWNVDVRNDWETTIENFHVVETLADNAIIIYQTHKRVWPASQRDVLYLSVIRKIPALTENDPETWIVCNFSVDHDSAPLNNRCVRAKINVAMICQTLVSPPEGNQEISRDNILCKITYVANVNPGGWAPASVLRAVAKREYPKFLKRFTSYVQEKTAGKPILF
Assay: not given
Particulars: see U.S. Pat. No. 7,326,768; cited from earlier work.
With “LATLSHCIELMVKR [Compound Q2, synthetic peptide representing the five-residue SHCIE motif of GPBP and flanking regions]”, the “α3(IV)NC1 conformer production by GPBP” value is reported as “reduce α3(IV)NC1 conformer production”.

In the next test the target is T1, GPBP.
Assay: not given
Particulars: see U.S. Pat. No. 7,326,768; cited from earlier work. The source holds these as a separate data set.
On to “LATLSHCIELMVKR [Compound Q2, synthetic peptide representing the five-residue SHCIE motif of GPBP and flanking regions]”, for which the “inhibition of GPBP autophosphorylation” value was “efficiently inhibited GPBP autophosphorylation”.

The next test has as its target T2, yeast recombinant FLAG-GPBP (Homo sapiens, UniProt Q9Y5P4).
T2 construct: FLAG; made in house
T2 sequence (Q9Y5P4 1-624): T1 sequence (Q9Y5P4 1-624)
The test is described as follows: FLAG-GPBP auto-phosphorylation assay. The class given is biochemical. To be noted: 10 μM compound, 5 min at 30° C., autoradiography bands quantified, vehicle = 100; read-out: Relative kinase activity (% referred to vehicle). The source says: Goodpasture antigen-binding protein (GPBP) is a non-conventional Ser/Thr kinase which targets and phosphorylates the non-collagenous (NC1) domain of α3 chain of human type IV collagen [α3(IV)NC1], known as Goodpasture antigen. GPBP expression has been associated with antibody-mediated glomerulonephritis, rheumatoid arthritis and drug-resistance cancer. We have reported that GPBP self-interacts, that aggregation and autophosphorylation regulate kinase activity, and that the Q2 peptide inhibits autophosphorylation and GPBP kinase activity (WO 00/50607). The GPBP kinase inhibitory activity of a number of terphenylic compounds mimicking Q2, a peptide representing a critical GPBP motif which is relevant for GPBP quaternary structure stabilization, have been tested on GPBP autophosphorylation ability The autophosphorylation ability of GPBP has been used to test the GPBP kinase inhibitor activity of several terphenylic compounds (Scheme 18) derived from the chemical structure of Q2 peptide, which in turn represents GPBP peptidic sequence relevant for self-interaction.
Two hundred nanograms of yeast recombinant FLAG-GPBP were subjected to phosphorylation assays in absence (vehicle) or presence of a 10 μM concentration of each of the indicated Q2-peptidomimetic compounds or an intermediate of synthesis used as negative control (C), during 5 min at 30° C. Reactions were subjected to SDS-PAGE, Western blot and autoradiography. The bands in the autoradiography were quantified using Image-Quant TL software. The kinase activity of GPBP in the presence of the indicated compounds was referred to the sample containing the vehicle, which was given a value of 100.
Yeast recombinant FLAG-GPBP production and purification were also performed. GPBP autophosphorylation assay times were limited to 10 min at 30° C.
Regarding `O=C(O)CCc1cc(O)ccc1-c1ccc(-c2cccc(C(F)(F)F)c2)c(CF)c1` [Compound 15b, 3-[2′-(fluoromethyl)-4″-hydroxy-3-(trifluoromethyl)-(1,1′;4′,1″)terphenyl-2″-yl]propionic acid], the activity at 10 µM turned out to be 21%.

In the case of `O=C(O)CCc1cc(O)ccc1-c1ccc(-c2cccc(C(F)(F)F)c2)c(C(F)F)c1` [Compound 20b, 3-[2′-(difluoromethyl)-4″-hydroxy-3-(trifluoromethyl)-(1,1′;4′,1″)terphenyl-2″-yl]propionic acid], the activity at 10 µM came out at 77%.

For `Cc1cccc(-c2ccc(-c3ccc(O)cc3CCC(=O)O)cc2C)c1` [Compound 12a, 3-[4″-hydroxy-2′,3-dimethyl-(1,1′;4′,1″)terphenyl-2″-yl]propionic acid], the activity at 10 µM is 53%.

`COc1ccc(-c2ccc(-c3cccc(C(F)(F)F)c3)c(C)c2)c(CCC(=O)O)c1` [Compound 22f, 3-[2′-methyl-4″-methoxy-3-(trifluoromethyl)-(1,1′;4′,1″)terphenyl-2″-yl]propionic acid]: the activity at 10 µM turned out to be 41%.

`Cc1cccc(-c2ccc(-c3ccc(OCC(=O)O)cc3CCC(=O)O)cc2C)c1` [Compound 24b, 3-[4″-(carboxymethoxy)-3,2′-dimethyl-(1,1′;4,1″)terphenyl-2″-yl]propionic acid]: the activity at 10 µM was determined as 64%.

With `Cc1cccc(-c2ccc(-c3ccc(O)cc3CCC(=O)O)cc2C(F)F)c1` [Compound 20a, 3-[2′-(difluoromethyl)-4″-hydroxy-3-methyl-(1,1′;4′,1″)terphenyl-2″-yl]propionic acid], the activity at 10 µM was 61%.

Regarding `COc1ccc(-c2ccc(-c3cccnc3)c(CO)c2)c(CCC(=O)O)c1` [Compound 22i, 3-[3′-(hydroxymethyl)-4-methoxy-4′-(pyridin-3-yl)biphenyl-2-yl]propionic acid], the activity at 10 µM stood at 132%.

As for `COc1ccc(-c2ccc(-c3cccnc3)c(CF)c2)c(CCC(=O)O)c1` [Compound 22k, 3-[3′-(fluoromethyl)-4-methoxy-4′-(pyridin-3-yl)biphenyl-2-yl]propionic acid], the activity at 10 µM came to 135%.

Take `Cc1cccc(-c2ccc(-c3ccc(O)cc3C(C)C)cc2CCC(=O)O)c1` [Compound 2a, 3-[4″-hydroxy-2″-isopropyl-3-methyl-(1,1′;4′,1″)terphenyl-2′-yl]propionic acid]: the activity at 10 µM was 90%.

`COc1ccc(-c2ccc(-c3cccc(C(F)(F)F)c3)c(CO)c2)c(CCC(=O)O)c1` [Compound 22e, 3-[2′-(hydroxymethyl)-4″-methoxy-3-(trifluoromethyl)-(1,1′;4′,1″)terphenyl-2″-yl]propionic acid]: the activity at 10 µM was 129%.

With `CCCOc1ccc(-c2ccc(-c3cccc(C(F)(F)F)c3)c(C)c2)c(CCC(=O)O)c1` [Compound 24c, 3-[2′-methyl-4″-propoxy-3-(trifluoromethyl)-(1,1′;4′,1″)terphenyl-2″-yl]propionic acid], the activity at 10 µM came out at 36%.

`COc1ccc(-c2ccc(-c3ccc(OC)c(C)c3)c(C)c2)c(CCC(=O)O)c1` [Compound 32, 3-[4,4″-dimethoxy-3,2′-dimethyl-(1,1′;4′,1″)terphenyl-2″-yl]propionic acid]: the activity at 10 µM is 28%.

On to `CCCOc1ccc(-c2ccc(-c3cccc(C)c3)c(C)c2)c(CCC(=O)O)c1` [Compound 24a, 3-[3,2′-dimethyl-4″-propoxy-(1,1′;4′,1″)terphenyl-2″-yl]propionic acid], for which the activity at 10 µM worked out at 73%.

As for `O=C(O)CCc1cc(O)ccc1-c1ccc(-c2cccnc2)c(CO)c1` [Compound 1c, 3-[4-hydroxy-3′-(hydroxymethyl)-4′-(pyridin-3-yl)biphenyl-2-yl]propionic acid], the activity at 10 µM worked out at 58%.

`COc1ccc(-c2ccc(-c3cccc(C(F)(F)F)c3)c(CF)c2)c(CCC(=O)O)c1` [Compound 22g, 3-[2′-(fluoromethyl)-4″-methoxy-3-(trifluoromethyl)-(1,1′;4′,1″)terphenyl-2″-yl]propionic acid]: the activity at 10 µM came to 103%.

As to `O=C(O)CCc1cc(O)ccc1-c1ccc(-c2cccc(C(F)(F)F)c2)c(CO)c1` [Compound 1b, 3-[4″-hydroxy-2′-(hydroxymethyl)-3-(trifluoromethyl)-(1,1′;4′,1″)terphenyl-2″-yl]propionic acid], the activity at 10 µM stood at 131%.

Consider `COc1ccc(-c2ccc(-c3cccnc3)c(C(F)F)c2)c(CCC(=O)O)c1` [Compound 22l, 3-[3′-(difluoromethyl)-4-methoxy-4′-(pyridin-3-yl)biphenyl-2-yl]propionic acid], for which the activity at 10 µM was 136%.

In the case of `COc1ccc(-c2ccc(-c3cccc(C)c3)c(CO)c2)c(CCC(=O)O)c1` [Compound 22a, 3-[2′-(hydroxymethyl)-4″-methoxy-3-methyl-(1,1′;4′,1″)terphenyl-2″-yl]propionic acid], the activity at 10 µM amounted to 118%.

As to `Cc1cccc(-c2ccc(-c3ccc(O)cc3CCC(=O)O)cc2CF)c1` [Compound 15a, 3-[2′-(fluoromethyl)-4″-hydroxy-3-methyl-(1,1′;4′,1″)terphenyl-2″-yl]propionic acid], the activity at 10 µM stood at 79%.

Regarding `Cc1cccc(-c2ccc(-c3ccc(O)cc3CCC(=O)O)cc2CO)c1` [Compound 1a, 3-[4″-hydroxy-2′-(hydroxymethyl)-3-methyl-(1,1′;4′,1″)terphenyl-2″-yl]propionic acid], the activity at 10 µM was found to be 34%.

For `COc1ccc(-c2ccc(-c3cccnc3)c(C)c2)c(CCC(=O)O)c1` [Compound 22j, 3-[4-methoxy-3′-methyl-4′-(pyridin-3-yl)biphenyl-2-yl]propionic acid], the activity at 10 µM was found to be 50%.

`COc1ccc(-c2ccc(-c3cccc(C(F)(F)F)c3)c(C(F)F)c2)c(CCC(=O)O)c1` [Compound 22h, 3-[2′-(difluoromethyl)-4″-methoxy-3-(trifluoromethyl)-(1,1′;4′,1″)terphenyl-2″-yl]propionic acid]: the activity at 10 µM is 49%.

Consider `COc1ccc(-c2ccc(-c3cccc(C)c3)c(CF)c2)c(CCC(=O)O)c1` [Compound 22c, 3-[2′-(fluoromethyl)-4″-methoxy-3-methyl-(1,1′;4′,1″)terphenyl-2″-yl]propionic acid], for which the activity at 10 µM stood at 123%.

On to `Cc1cc(-c2ccc(O)cc2CCC(=O)O)ccc1-c1cccc(C(F)(F)F)c1` [Compound 12b, 3-[4″-hydroxy-2′-methyl-3-(trifluoromethyl)-(1,1′;4′,1″)terphenyl-2″-yl]propionic acid], for which the activity at 10 µM amounted to 49%.

Take `COc1ccc(-c2ccc(-c3cccc(C)c3)c(C)c2)c(CCC(=O)O)c1` [Compound 22b, 3-[4″-methoxy-3,2′-dimethyl-(1,1′;4′,1″)terphenyl-2″-yl]propionic acid]: the activity at 10 µM worked out at 44%.

Turning to `COc1ccc(-c2ccc(-c3cccc(C)c3)c(C(F)F)c2)c(CCC(=O)O)c1` [Compound 22d, 3-[2′-(difluoromethyl)-4″-methoxy-3-methyl-(1,1′;4′,1″)terphenyl-2″-yl]propionic acid], the activity at 10 µM is 79%.

(Values after patent publication US10544083B2, “GPBP inhibition using Q2 peptidomimetics” (FibroStatin, S.L., priority 2009, dated 2020).)
